In patent US12612410B2 (CHILDREN'S HOSPITAL MEDICAL CENTER, priority 2020, dated 2026):

target: T1, FLT3 ITD (Homo sapiens, UniProt P36888); experiment: DiscoverX KINOMEscan competition binding, FLT3 ITD
T1 construct: fused on or other part: DNA tag for qPCR detection (T7 phage fusion or DNA-tagged protein from HEK-293 cells)
T1 sequence (P36888 1-993): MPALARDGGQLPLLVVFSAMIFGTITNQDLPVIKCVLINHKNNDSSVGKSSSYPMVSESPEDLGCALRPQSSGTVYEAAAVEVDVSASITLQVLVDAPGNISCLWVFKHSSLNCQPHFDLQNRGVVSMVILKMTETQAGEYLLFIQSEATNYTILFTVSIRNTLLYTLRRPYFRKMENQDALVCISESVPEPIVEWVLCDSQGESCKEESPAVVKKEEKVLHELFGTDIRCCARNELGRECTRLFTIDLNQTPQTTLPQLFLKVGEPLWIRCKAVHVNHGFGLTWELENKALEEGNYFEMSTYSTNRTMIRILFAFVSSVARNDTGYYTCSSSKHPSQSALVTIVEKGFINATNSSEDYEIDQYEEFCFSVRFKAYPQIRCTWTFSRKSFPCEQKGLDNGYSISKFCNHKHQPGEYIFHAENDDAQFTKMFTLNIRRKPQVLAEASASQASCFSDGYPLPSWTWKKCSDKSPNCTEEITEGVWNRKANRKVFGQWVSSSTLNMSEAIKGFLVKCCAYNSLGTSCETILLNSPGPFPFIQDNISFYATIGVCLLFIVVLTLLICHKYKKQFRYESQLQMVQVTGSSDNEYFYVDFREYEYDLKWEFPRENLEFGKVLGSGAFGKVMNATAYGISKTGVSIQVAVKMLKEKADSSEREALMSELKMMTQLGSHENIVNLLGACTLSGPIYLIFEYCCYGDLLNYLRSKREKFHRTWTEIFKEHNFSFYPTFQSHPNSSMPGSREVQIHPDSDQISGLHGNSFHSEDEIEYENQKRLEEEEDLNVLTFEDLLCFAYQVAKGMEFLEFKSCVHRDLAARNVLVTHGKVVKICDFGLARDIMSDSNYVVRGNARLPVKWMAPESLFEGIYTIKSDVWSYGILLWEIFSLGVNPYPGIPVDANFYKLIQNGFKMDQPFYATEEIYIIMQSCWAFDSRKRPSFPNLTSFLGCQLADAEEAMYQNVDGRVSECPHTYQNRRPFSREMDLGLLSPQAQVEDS
Source text: Kinase binding data were obtained for various exemplary compounds prepared according to Examples 1-24 using the DiscoverX KINOMVIEscan® active site-directed competition binding site-directed assay protocol described below. […] As a result, the data report thermodynamic interaction affinities (Kd values), rather than IC50 values that are dependent on ATP concentrations. The assay uses a DNA-tagged version of the protein kinase, and an immobilized ligand bound to a solid support. Compounds that directly or indirectly prevent kinase binding to the immobilized ligand reduce the amount of kinase captured on the solid support, which is detected using an ultra-sensitive qPCR method. Affinity constants reported from the assay have been reported to be independent of the immobilized ligand used that is coupled to the solid support (See supplemental information in Fabian, M. A. et. al., (2005) Nat. Biotechnol. 23, 329-336; Wodicka, L. M. et. al., (2010) Chem. Biol. 17, 1241-1249.)
Kinase-tagged T7 phage strains were prepared in an E. coli host derived from the BL21 strain. E. coli were grown to log-phase and infected with T7 phage and incubated with shaking at 32° C. until lysis. The lysates were centrifuged and filtered to remove cell debris. The remaining kinases were produced in HEK-293 cells and subsequently tagged with DNA for qPCR detection. Streptavidin-coated magnetic beads were treated with biotinylated small molecule ligands for 30 minutes at room temperature to generate affinity resins for kinase assays. The liganded beads were blocked with excess biotin and washed with blocking buffer (SeaBlock (Pierce), 1% BSA, 0.05% Tween 20, 1 mM DTT) to remove unbound ligand and to reduce non-specific binding. Binding reactions were assembled by combining kinases, liganded affinity beads, and test compounds in 1× binding buffer (20% SeaBlock, 0.17×PBS, 0.05% Tween 20, 6 mM DTT). Test compounds were prepared as 111× stocks in 100% DMSO. Kds were determined using an 11-point 3-fold compound dilution series with three DMSO control points. All compounds for Kd measurements are distributed by acoustic transfer (non-contact dispensing) in 100% DMSO. The compounds were then diluted directly into the assays such that the final concentration of DMSO was 0.9%. All reactions were performed in polypropylene 384-well plates. Each was a final volume of 0.02 mL. The assay plates were incubated at room temperature with shaking for 1 hour and the affinity beads were washed with wash buffer (1×PBS, 0.05% Tween 20). The beads were then re-suspended in elution buffer (1×PBS, 0.05% Tween 20, 0.5 μM nonbiotinylated affinity ligand) and incubated at room temperature with shaking for 30 minutes. The kinase concentration in the eluates was measured by qPCR.
Binding constants (Kds) were calculated with a standard dose-response curve using the Hill equation. The Hill Slope was set to −1. Curves were fitted using a non-linear least square fit with the Levenberg-Marquardt algorithm.

| Structure (SMILES) | Kd |
| --- | --- |
| CC1(c2cn3c(-c4cccc(N[C@H]5CNC[C@@H]5F)n4)cnc3cn2)CC1 [Compound 1, N-((3S,4S)-4-fluoropyrrolidin-3-yl)-6-(6-(1-methylcyclopropyl)imidazo[1,2-a]pyrazin-3-yl)pyridin-2-amine] | 87 pM |
| CC1(c2cn3c(-c4cccc(N[C@@H]5CCNC5)n4)cnc3cn2)CC1 [Compound 3, (R)-6-(6-(1-methylcyclopropyl)imidazo[1,2-a]pyrazin-3-yl)-N-(pyrrolidin-3-yl)pyridin-2-amine] | 140 pM |
| CC1(c2cn3c(-c4cccc(N[C@H]5CNCC56CC6)n4)cnc3cn2)CC1 [Compound 5, (R)-N-(6-(6-(1-methylcyclopropyl)imidazo[1,2-a]pyrazin-3-yl)pyridin-2-yl)-5-azaspiro[2.4]heptan-7-amine] | 110 pM |
| FC(F)(F)C1(c2cn3c(-c4cccc(N[C@@H]5CCNC5)n4)cnc3cn2)CC1 [Compound 10, (R)-N-(pyrrolidin-3-yl)-6-(6-(1-(trifluoromethyl)cyclopropyl)imidazo[1,2-a]pyrazin-3-yl)pyridin-2-amine] | 1400 pM |
| FC(F)c1cn2c(-c3cccc(N[C@H]4CNC[C@@H]4F)n3)cnc2cn1 [Compound 16, 6-(6-(difluoromethyl)imidazo[1,2-a]pyrazin-3-yl)-N-((3S,4S)-4-fluoropyrrolidin-3-yl)pyridin-2-amine] | 140 pM |
| FC(F)c1cn2c(-c3cccc(N[C@H]4CNCC[C@@H]4F)n3)cnc2cn1 [Compound 25, 6-(6-(difluoromethyl)imidazo[1,2-a]pyrazin-3-yl)-N-((3S,4S)-4-fluoropiperidin-3-yl)pyridin-2-amine] | 340 pM |
| CC(C)(O)c1cn2c(-c3cccc(N[C@@H]4CCCNC4)n3)cnc2cn1 [Compound 30, (R)-2-(3-(6-(piperidin-3-ylamino)pyridin-2-yl)imidazo[1,2-a]pyrazin-6-yl)propan-2-ol] | 2900 pM |
| CC(C)(O)c1cn2c(-c3cccc(N[C@H]4CNCC[C@@H]4F)n3)cnc2cn1 [Compound 31, 2-(3-(6-(((3S,4S)-4-fluoropiperidin-3-yl)amino)pyridin-2-yl)imidazo[1,2-a]pyrazin-6-yl)propan-2-ol] | 1500 pM |
| FC(F)(F)COc1cn2c(-c3cccc(N[C@@H]4CCNC4)n3)cnc2cn1 [Compound 38, (R)-N-(pyrrolidin-3-yl)-6-(6-(2,2,2-trifluoroethoxy)imidazo[1,2-a]pyrazin-3-yl)pyridin-2-amine] | 2300 pM |
| F[C@H]1CNC[C@@H]1Nc1cccc(-c2cnc3cnc(C4CC4)cn23)n1 [Compound 50, 6-(6-cyclopropylimidazo[1,2-a]pyrazin-3-yl)-N-((3S,4S)-4-fluoropyrrolidin-3-yl)pyridin-2-amine] | 91 pM |
| Cn1cc(-c2cn3c(-c4cccc(N[C@H]5CNC[C@@H]5F)n4)cnc3cn2)cn1 [Compound 52, N-((3S,4S)-4-fluoropyrrolidin-3-yl)-6-(6-(1-methyl-1H-pyrazol-4-yl)imidazo[1,2-a]pyrazin-3-yl)pyridin-2-amine] | 130 pM |
